Measured values as given in ChEMBL document CHEMBL5325478, “The unique activity of saponin: Induction of cytotoxicity in HTLV-1 infected cells” (Bioorg Med Chem, 2023).
Calls of active or inactive are those of the source. No cut-off for these calls is given here.

Key:
HeLa [1] = test: Induction of GAG aggregation in human HeLa cells transfected with Gag-Venus expression vector assessed as increase in number of bright GAG dots at 50 uM incubated for 2 hrs by immunostaining based confocal microscopic analysis; type: cell-based
MT2 [2] = test: Suppression of GAG protein cleavage in human MT-2 cells infected with HTLV-1 assessed as increase in intracellular Pr53 protein expression at 50 uM incubated for 3 days by immunoblot analysis; type: cell-based; conditions: time 3.0 day
HeLa [3] = test: Upregulation of membrane localized GAG protein expression in human HeLa cells transfected with GAG-FLAG expression vector assessed as effect on E-cadherin protein expression at 50 uM by chemiluminescence based immunoblotting analysis; type: functional, cell-based
HeLa [4] = test: Induction of GAG aggregation in human HeLa cells transfected with Gag-FLAG expression vector assessed as increase in number of bright GAG dots at 50 uM incubated for 2 hrs by immunostaining based confocal microscopic analysis; type: cell-based
MT2 [5] = test: Induction of GAG aggregation in top cross section of human MT-2 cells infected with HTLV-1 assessed as ratio of cells with aggregated GAG at 50 uM incubated for 2 hrs by immunostaining based confocal microscopic analysis (reference value: 4.3%); type: cell-based
MT2 [6] = test: Cytotoxicity against human MT2 cells infected with HTLV-1 assessed as reduction in cell viability at 100 uM incubated for 3 days by MTT assay; type: functional, cell-based; conditions: time 3.0 day
MT2 [7] = test: Induction of GAG aggregation in middle cross section of human MT-2 cells infected with HTLV-1 assessed as ratio of cells with aggregated GAG at 50 uM incubated for 2 hrs by immunostaining based confocal microscopic analysis (reference value: 44.1%); type: cell-based
MT2 [8] = test: Cytotoxicity against human MT2 cells infected with HTLV-1 assessed as reduction in cell viability at 50 uM incubated for 3 days by MTT assay; type: functional, cell-based; conditions: time 3.0 day
MT2 [9] = test: Suppression of GAG protein cleavage in human MT-2 cells infected with HTLV-1 assessed as reduction in intracellular p28 protein expression at 50 uM incubated for 3 days by immunoblot analysis; type: cell-based; conditions: time 3.0 day
MT2 [10] = test: Suppression of GAG protein cleavage in human MT-2 cells infected with HTLV-1 assessed as reduction in p19 protein expression in supernatant at 50 uM incubated for 3 days by immunoblot analysis; type: cell-based; conditions: time 3.0 day
Jurkat [11] = test: Cytotoxicity against human Jurkat cells assessed as reduction in cell viability at 100 uM incubated for 3 days by MTT assay; type: functional, cell-based; conditions: time 3.0 day
Jurkat [12] = test: Cytotoxicity against human Jurkat cells assessed as reduction in cell viability at 50 uM incubated for 3 days by MTT assay; type: functional, cell-based; conditions: time 3.0 day
MT2 [13] = test: Preferential cytotoxicity against human MT2 cells infected with HTLV-1 assessed as reduction in cell viability at 10 to 25 uM incubated for 3 days by MTT assay; type: functional, cell-based; conditions: dose 10-25 µM, time 3.0 day

CC1(C)CC[C@]2(C(=O)O)CC[C@]3(C)C(=CC[C@@H]4[C@@]5(C)CC[C@H](O[C@@H]6OC[C@H](O)[C@H](O)[C@H]6O[C@@H]6O[C@H](CO)[C@@H](O)[C@H](O)[C@H]6O)[C@@](C)(CO)[C@@H]5CC[C@]43C)[C@@H]2C1
Activity (HeLa [1]): Active | Activity (MT2 [2]): inactive | Activity (HeLa [3]): inactive | Activity (HeLa [4]): Active | Ratio (MT2 [5]): 7.3% | Activity (MT2 [6]): Active | Ratio (MT2 [7]): 41.3% | Activity (MT2 [8]): Active | Activity (MT2 [9]): Active | Activity (MT2 [10]): Active | Activity (Jurkat [11]): Active | Activity (Jurkat [12]): inactive

CC1(C)CC[C@]2(C(=O)O)CC[C@]3(C)C(=CC[C@@H]4[C@@]5(C)CC[C@H](O[C@@H]6OC[C@H](O)[C@H](O)[C@H]6O[C@@H]6OC[C@@H](O)[C@H](O)[C@H]6O)[C@@](C)(CO)[C@@H]5CC[C@]43C)[C@@H]2C1
Activity (MT2 [13]): inactive | Activity (MT2 [6]): Active | Activity (MT2 [8]): Active | Activity (Jurkat [11]): Active | Activity (Jurkat [12]): Active

CC1(C)CC[C@]2(C(=O)O[C@@H]3O[C@H](CO[C@@H]4O[C@H](CO)[C@@H](O)[C@H](O)[C@H]4O)[C@@H](O)[C@H](O)[C@H]3O)CC[C@]3(C)C(=CC[C@@H]4[C@@]5(C)CC[C@H](O[C@@H]6OC[C@H](O)[C@H](O)[C@H]6O[C@@H]6OC[C@@H](O)[C@H](O)[C@H]6O)[C@@](C)(CO)[C@@H]5CC[C@]43C)[C@@H]2C1
Activity (MT2 [6]): inactive | Activity (Jurkat [11]): inactive

CC1(C)CC[C@]2(C(=O)O[C@@H]3O[C@H](CO[C@@H]4O[C@H](CO)[C@@H](O)[C@H](O)[C@H]4O)[C@@H](O)[C@H](O)[C@H]3O)CC[C@]3(C)C(=CC[C@@H]4[C@@]5(C)CC[C@H](O[C@@H]6OC[C@H](O)[C@H](O)[C@H]6O)[C@@](C)(CO)[C@@H]5CC[C@]43C)[C@@H]2C1
Activity (MT2 [6]): inactive | Activity (Jurkat [11]): inactive

CC1(C)CC[C@]2(C(=O)O)CC[C@]3(C)C(=CC[C@@H]4[C@@]5(C)CC[C@H](O[C@@H]6OC[C@H](O)[C@H](O)[C@H]6O)[C@@](C)(CO)[C@@H]5CC[C@]43C)[C@@H]2C1
Activity (MT2 [13]): inactive | Activity (MT2 [6]): Active | Activity (MT2 [8]): Active | Activity (Jurkat [11]): Active | Activity (Jurkat [12]): Active

C[C@@H]1O[C@@H](O[C@H]2[C@H](O)[C@@H](O)[C@H](OC[C@H]3O[C@@H](OC(=O)[C@]45CCC(C)(C)C[C@H]4C4=CC[C@@H]6[C@@]7(C)CC[C@H](O[C@@H]8OC[C@H](O[C@@H]9O[C@@H](C)[C@H](O)[C@@H](O)[C@H]9O)[C@H](O)[C@H]8O[C@@H]8O[C@H](CO)[C@@H](O)[C@H](O)[C@H]8O)[C@@](C)(CO)[C@@H]7CC[C@@]6(C)[C@]4(C)CC5)[C@H](O)[C@@H](O)[C@@H]3O)O[C@@H]2CO)[C@H](O)[C@H](O)[C@H]1O
Activity (MT2 [6]): inactive | Activity (Jurkat [11]): inactive

CC1(C)CC[C@]2(C(=O)O)CC[C@]3(C)C(=CC[C@@H]4[C@@]5(C)CC[C@H](O)[C@@](C)(CO)[C@@H]5CC[C@]43C)[C@@H]2C1
Activity (MT2 [2]): inactive | Activity (MT2 [8]): Active | Activity (MT2 [9]): inactive | Activity (MT2 [10]): inactive | Activity (Jurkat [12]): Active

C[C@@H]1O[C@@H](O[C@H]2[C@H](O[C@H]3CC[C@@]4(C)[C@@H](CC[C@]5(C)[C@@H]4CC=C4[C@@H]6CC(C)(C)CC[C@]6(C(=O)O[C@@H]6O[C@H](CO[C@@H]7O[C@H](CO)[C@@H](O[C@@H]8O[C@@H](C)[C@H](O)[C@@H](O)[C@H]8O)[C@H](O)[C@H]7O)[C@@H](O)[C@H](O)[C@H]6O)CC[C@]45C)[C@]3(C)CO)OC[C@H](O)[C@@H]2O)[C@H](O)[C@H](O)[C@H]1O
Activity (MT2 [6]): inactive | Activity (Jurkat [11]): inactive
